# Data reported in US8383638B2, “Aminobenzoquinazolinone M1 receptor positive allosteric modulators” (Merck Sharp & Dohme, priority 2009, dated 2013).
# Target: T1, acetylcholine muscarinic M1 receptor (Homo sapiens, UniProt P11229)
# T1 construct: expressed in transfected cells; host or cells: CHOnfat cells (CHO; also called CHOK1/hM1)
# T1 sequence (P11229 1-460): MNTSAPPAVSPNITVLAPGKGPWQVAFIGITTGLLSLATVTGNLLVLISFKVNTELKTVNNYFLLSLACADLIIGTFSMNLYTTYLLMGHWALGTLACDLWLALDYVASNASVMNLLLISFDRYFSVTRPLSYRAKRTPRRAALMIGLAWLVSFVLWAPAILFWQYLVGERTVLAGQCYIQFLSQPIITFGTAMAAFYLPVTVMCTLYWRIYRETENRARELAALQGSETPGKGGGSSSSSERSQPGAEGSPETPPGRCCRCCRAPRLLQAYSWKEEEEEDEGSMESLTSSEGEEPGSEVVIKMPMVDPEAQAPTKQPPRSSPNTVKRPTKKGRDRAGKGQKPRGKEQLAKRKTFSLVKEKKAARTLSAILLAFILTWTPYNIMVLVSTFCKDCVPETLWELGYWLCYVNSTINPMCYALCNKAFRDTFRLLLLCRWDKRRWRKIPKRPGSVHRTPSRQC
# Test: muscarinic FLIPR assay: potentiation of acetylcholine (EC20)-stimulated intracellular Ca2+ in CHOnfat/hM1 cells
# Type: cell-based
# Conditions: 4 min preincubation, then EC20 acetylcholine (3 nM final), positive allosteric modulator activity, read-out: IP Value (inflection point)
# Experimental: The assay studies the effect of one or several concentrations of test compounds on basal or acetylcholine-stimulated Ca^2+ levels using FLIPR.
# Compounds are prepared and subjected to a preincubation period of 4 min. Thereafter, a single EC20 concentration of acetylcholine is added to each well (3 nM final). The intracellular Ca^2+ level of each sample is measured and compared to an acetylcholine control to determine any modulatory activity.
# Cells: CHOnfat/hM1, hM2, hM3 or hM4 cells are plated 24 hr before the assay at a density of 18,000 cells/well (100 μL) in a 384 well plate. CHOnfat/hM1 and CHOnfat/hM3 Growth Medium: 90% DMEM (Hi Glucose); 10% HI FBS; 2 mM L-glutamine; 0.1 mM NEAA; Pen-Strep; and 1 mg/ml Geneticin, are added. For M2Gqi5CHOnfat and M4Gqi5CHOnfat cells, an additional 600 ug/ml hygromycin is added.
# Equipment: 384 well plate, 120 μL addition plate; 96-well Whatman 2 ml Uniplate Incubator, 37° C., 5% CO2; Skatron EMBLA-384 Plate Washer; Multimek Pipetting System; Genesis Freedom 200 System; Mosquito System; Temo Nanoliter Pipetting System; and FLIPR^384 Fluorometric Imaging Plate Reader System are used.
# Buffers. Assay Buffer: Hanks Balanced Salt Solution, with 20 mM Hepes, 2.5 mM Probenecid (Sigma P-8761) first dissolved in 1 N NaOH, 1% Bovine Serum Albumin (Sigma A-9647). Dye Loading Buffer: Assay Buffer plus 1% Fetal Bovine Serum and Fluo-4AM/Pluronic Acid Mixture. 2 mM Fluo-4AM ester stock in DMSO (Molecular Probes F-14202) Concentration of 2 μM in buffer for a final concentration of 1 μM in Assay. 20% Pluronic Acid Solution stock, with concentration of 0.04% in Buffer, 0.02% in Assay.
# 65 μL of 2 mM Fluo-4AM are mixed with 130 μL of 20% Pluronic Acid. The resulting solution and 650 μL FBS is added to the assay buffer for a total volume of 65 mL. Positive Controls: 4-Br-A23187: 10 mM in DMSO; final concentration 10 μM. Acetylcholine: 10 mM in water, working stock at both 20 μM and 30 μM in assay buffer, final concentration of 10 μM. This is used to check the maximum stimulation of the CHOK1/hM1 cells. 20 μM (2×) acetylcholine is added in the preincubation part of the assay, and the 30 μM (3×) stock is added in the second part. (EC20)Acetylcholine: 10 mM in water, working stock of 9 nM (3×), and final concentration in assay is 3 nM. This is used after the preincubation with test compounds. Addition of the EC20 Acetylcholine to each well with a test compound will ascertain any modulator activity. 24 wells contain 3 nM Acetylcholine alone as a control.
# Screening Plate Compounds are titrated in 96-well plates (columns 2-11), 100% DMSO, started at a concentration of 15 mM (150× stock concentration), and 3-fold serial dilutions using Genesis Freedom200 System. Four 96-well plates are combined into a 384-well plate using Mosquito Nanoliter Pipetting System by transferring 1 μl of serial diluted compounds to each well, and 1 mM acetylcholine (100× stock concentration) were added as a control. Using Temo, 49 μl assay buffer is added to each well of the 384-well plate right before assay.
# In a 96-well Whatman 2 ml Uniplate, 9 nM Acetylcholine (3×) is pipetted into wells corresponding to the screening compounds, and into control wells. The 30 μM acetylcholine control (3×) is added into control wells, and the 3× agonist plate is transferred into a 384 well plate.
# Cells are washed three times with 100 μL of buffer, leaving 30 μL of buffer in each well. Using Multimek, 30 μL of Dye Loading Buffer is added into each well and incubated at 37° C., 5% CO2 for up to one hr.
# After 60 min, the cells are washed three times with 100 μL of buffer, leaving 30 μL […] of buffer in each well. The cell plate, screening plate, and agonist addition plates are placed on the platform in the FLIPR and the door closed. A signal test to check background fluorescence and basal fluorescence signal is performed. Laser intensity is adjusted if necessary. […]
row,SMILES,EC50
1,"N#CC1(c2ccccn2)CC[N+]([O-])(Cc2cc3c(=O)n([C@H]4CCCC[C@@H]4O)cnc3c3ccccc23)CC1 (stereo partly drawn) [Example 4, 1-({3-[(1S,2S)-2-Hydroxycyclohexyl]-4-oxo-3,4-dihydrobenzo[h]quinazolin-6-yl}methyl)-4-pyridin-2-ylpiperidine-4-carbonitrile 1-oxide]",3880 nM
2,"CC1(C#N)CCN(Cc2cc3c(=O)n([C@H]4CCCC[C@@H]4O)cnc3c3ccccc23)CC1 [Example 8, 1-({3-[(1S,2S)-2-Hydroxycyclohexyl]-4-oxo-3,4-dihydrobenzo[h]quinazolin-6-yl}methyl)-4-methylpiperidine-4-carbonitrile]",339 nM
3,"Cc1ccnc(C2(C#N)CCN(Cc3cc4c(=O)n([C@H]5CCCC[C@@H]5O)cnc4c4ccncc34)CC2)c1 [Example 5, 1-({3-[(1S,2S)-2-Hydroxycyclohexyl]-4-oxo-3,4-dihydropyrido[3,4-h]quinazolin-6-yl}methyl)-4-(4-methylpyridin-2-yl)piperidine-4-carbonitrile]",21 nM
4,N#CC1(c2ccccn2)CCN(Cc2cc3c(=O)n([C@H]4CCOC[C@@H]4O)cnc3c3ccccc23)CC1 [Example 3],31 nM
5,"N#CC1(c2ccccn2)CCN(Cc2cc3c(=O)n([C@H]4CCCC[C@@H]4O)cnc3c3ccccc23)CC1 [Example 2, 1-({3-[(1S,2S)-2-Hydroxycyclohexyl]-4-oxo-3,4-dihydrobenzo[h]quinazolin-6-yl}methyl)-4-pyridin-2-ylpiperidine-4-carbonitrile]",18 nM
6,"Cn1cc(N2CCN(Cc3cc4c(=O)n([C@H]5CCCC[C@@H]5O)cnc4c4ccccc34)CC2=O)cn1 (racemic) [Example 7, rac-3[(1R,2R)-2-Hydroxycyclohexyl]-6-{[4-(1-methyl-1H-pyrazol-4-yl)-3-oxopiperazin-1-yl]methyl}benzo[h]quinazolin-4(3H)-one]",44 nM
7,"N#CC1(c2ccccn2)CCN(Cc2cc3c(=O)n([C@H]4CCCC[C@@H]4O)cnc3c3ccccc23)CC1 (racemic) [Example 1, rac-1-({3-[(1R,2R)-2-Hydroxycyclohexyl]-4-oxo-3,4-dihydrobenzo[h]quinazolin-6-yl}methyl)-4-pyridin-2-ylpiperidine-4-carbonitrile]",45 nM
8,"O=c1c2cc(CN3CCC(F)(c4ccccn4)CC3)c3ccccc3c2ncn1[C@H]1CCCC[C@@H]1O [Example 9, 6-[(4-Fluoro-4-pyridin-2-ylpiperidin-1-yl)methyl]-3-[(1S,2S)-2-hydroxycyclohexyl]benzo[h]quinazolin-4(3H)-one]",105 nM
9,"O=c1c2cc(CN3CCN(c4ccsc4)CC3)c3ccccc3c2ncn1[C@H]1CCCC[C@@H]1O [Example 6, 3-[(1S,2S)-2-Hydroxycyclohexyl]-6-{[4-(3-thienyl)piperazin-1-yl]methyl}benzo[h]quinazolin-4(3H)-one]",387 nM
